Article PMC4450297, “Screening Active Compounds from Garcinia Species Native to China Reveals Novel Compounds Targeting the STAT/JAK Signaling Pathway” (BioMed Research International, 2015)

Tests used:
Assay in all cases: Cell panel screen (CellTiter-Glo)
Assay type in all cases: cell-based, human
J82 = J82 (Urinary bladder), 20 micromolar, 72 hrs
Protocol: (§1) All cells were obtained from the cell bank of the American Type Culture Collection (ATCC) and cultured in the supplier's recommended media supplemented with 10% FBS. The cell panel screen was measured using the CellTiter-Glo assay (Promega, Madison, WI) following a standard protocol. Briefly, cancer cells were seeded in 96-well plates and cultured overnight at 37°C with or without 5% CO2 in an incubator. Each compound was dissolved with limited DMSO and diluted to a certain concentration with culture medium and then added to the corresponding well of the cell plate. The final concentration of compound was 20 μM. The control cells (without treatment) received the same amount of DMSO and were incubated under the same conditions. After 72 h cultivation, 100 μL of the CellTiter-Glo reagent was added directly to each well for 10-minute incubation. The plate was then read on a FlexStation 3 microplate luminometer (Molecular Devices, USA) to monitor the luminescence signal generated by the luciferase-catalyzed reaction of luciferin and ATP. The percent of growth inhibition was calculated using the following formula: (untreated cells − treated cells)/(untreated cells − background without cells) ∗ 100.

NCI-H1694 = NCI-H1694 (Lung), 20 micromolar, 72 hrs
Protocol: as §1

SW13 = SW13 (Adrenal gland), 20 micromolar, 72 hrs
Protocol: as §1

A498 = A498 (listed under Lung), 20 micromolar, 72 hrs
Protocol: as §1

CW-2 = CW-2 (Colon), 20 micromolar, 72 hrs
Protocol: as §1

NCI-H28 = NCI-H28 (Lung), 20 micromolar, 72 hrs
Protocol: as §1

ZR-75-30 = ZR-75-30 (Breast), 20 micromolar, 72 hrs
Protocol: as §1

Colo 205 = details: Colo 205, 20 micromolar, 72 hrs
Protocol: as §1

HPAF-II = HPAF-II (Pancreas), 20 micromolar, 72 hrs
Protocol: as §1

NCI-H524 = NCI-H524 (Lung), 20 micromolar, 72 hrs
Protocol: as §1

Panc 03.27 = Panc 03.27 (Pancreas), 20 micromolar, 72 hrs
Protocol: as §1

Bel-7402 = Bel-7402 (Liver), 20 micromolar, 72 hrs
Protocol: as §1

HT-1197 = HT-1197 (Urinary bladder), 20 micromolar, 72 hrs
Protocol: as §1

HEC-1-A = HEC-1-A (Uterus), 20 micromolar, 72 hrs
Protocol: as §1

TCCSUP = TCCSUP (Urinary bladder), 20 micromolar, 72 hrs
Protocol: as §1

HCC1937 = HCC1937 (Breast), 20 micromolar, 72 hrs
Protocol: as §1

T47D = T47D (Breast), 20 micromolar, 72 hrs
Protocol: as §1

RL95 = RL95 (Uterus), 20 micromolar, 72 hrs
Protocol: as §1

ChaGo-K-1 = ChaGo-K-1 (Lung), 20 micromolar, 72 hrs
Protocol: as §1

C8166 = C8166 (Leukemia), 20 micromolar, 72 hrs
Protocol: as §1

BT-474 = BT-474 (Breast), 20 micromolar, 72 hrs
Protocol: as §1

NCI-H1623 = NCI-H1623 (Lung), 20 micromolar, 72 hrs
Protocol: as §1

C3A = C3A (Liver), 20 micromolar, 72 hrs
Protocol: as §1

NCI-H1770 = NCI-H1770 (Lung), 20 micromolar, 72 hrs
Protocol: as §1

HGC-27 = HGC-27 (Stomach), 20 micromolar, 72 hrs
Protocol: as §1

HCC1395 = HCC1395 (Breast), 20 micromolar, 72 hrs
Protocol: as §1

T98G = T98G (Brain), 20 micromolar, 72 hrs
Protocol: as §1

A704 = A704 (Kidney), 20 micromolar, 72 hrs
Protocol: as §1

NCI-H2347 = NCI-H2347 (Lung), 20 micromolar, 72 hrs
Protocol: as §1

HCC1599 = HCC1599 (Breast), 20 micromolar, 72 hrs
Protocol: as §1

BT-549 = BT-549 (Breast), 20 micromolar, 72 hrs
Protocol: as §1

CCF-STTG1 = CCF-STTG1 (Brain), 20 micromolar, 72 hrs
Protocol: as §1

MSTO-211-H = MSTO-211-H (Lung), 20 micromolar, 72 hrs
Protocol: as §1

M059J = M059J (Brain), 20 micromolar, 72 hrs
Protocol: as §1

HCC1569 = HCC1569 (Breast), 20 micromolar, 72 hrs
Protocol: as §1

NCI-H2405 = NCI-H2405 (Lung), 20 micromolar, 72 hrs
Protocol: as §1

| Structure (SMILES) | Percent Inhibition (J82) | Percent Inhibition (NCI-H1694) | Percent Inhibition (SW13) | Percent Inhibition (A498) | Percent Inhibition (CW-2) | Percent Inhibition (NCI-H28) | Percent Inhibition (ZR-75-30) | Percent Inhibition (Colo 205) | Percent Inhibition (HPAF-II) | Percent Inhibition (NCI-H524) | Percent Inhibition (Panc 03.27) | Percent Inhibition (Bel-7402) | Percent Inhibition (HT-1197) | Percent Inhibition (HEC-1-A) | Percent Inhibition (TCCSUP) | Percent Inhibition (HCC1937) | Percent Inhibition (T47D) | Percent Inhibition (RL95) | Percent Inhibition (ChaGo-K-1) | Percent Inhibition (C8166) | also measured |
| --- | --- | --- | --- | --- | --- | --- | --- | --- | --- | --- | --- | --- | --- | --- | --- | --- | --- | --- | --- | --- | --- |
| COc1cc(O)c2c(=O)c3ccc(O)c(O)c3oc2c1CC=C(C)C [gl-17] | 88% | 98% | 85% | 75% | 96% | 76% | 98% | 97% | 89% | 98% | 84% | 60% | 95% | 76% | 83% | 83% | 72% | 87% | 87% | 90% | Percent Inhibition (BT-474): 89%; Percent Inhibition (NCI-H1623): 41%; Percent Inhibition (C3A): 89%; Percent Inhibition (NCI-H1770): 40%; Percent Inhibition (HGC-27): 92%; Percent Inhibition (HCC1395): 89%; Percent Inhibition (T98G): 85%; Percent Inhibition (A704): 42%; Percent Inhibition (NCI-H2347): 86%; Percent Inhibition (HCC1599): 93%; Percent Inhibition (BT-549): 65%; Percent Inhibition (CCF-STTG1): 74%; Percent Inhibition (MSTO-211-H): 79%; Percent Inhibition (M059J): 91%; Percent Inhibition (HCC1569): 74%; Percent Inhibition (NCI-H2405): 19% |
| CC(C)=CCC[C@@]1(C)C=Cc2c(O)c3c(c(CC=C(C)C)c2O1)O[C@]12C(=C[C@@H]4C[C@H]1C(C)(C)O[C@@]2(C/C=C(/C)C(=O)O)C4=O)C3=O [GB11] | 98% | 99% | 98% | 98% | 98% | 99% | 99% | 98% | 98% | 97% | 99% | 98% | 98% | 99% | 99% | 98% | 99% | 99% | 98% | 99% | Percent Inhibition (BT-474): 98%; Percent Inhibition (NCI-H1623): 98%; Percent Inhibition (C3A): 98%; Percent Inhibition (NCI-H1770): 98%; Percent Inhibition (HGC-27): 98%; Percent Inhibition (HCC1395): 98%; Percent Inhibition (T98G): 99%; Percent Inhibition (A704): 98%; Percent Inhibition (NCI-H2347): 98%; Percent Inhibition (HCC1599): 99%; Percent Inhibition (BT-549): 99%; Percent Inhibition (CCF-STTG1): 98%; Percent Inhibition (MSTO-211-H): 98%; Percent Inhibition (M059J): 98%; Percent Inhibition (HCC1569): 99%; Percent Inhibition (NCI-H2405): 98% |
| CC(C)=CCc1c(O)cc2oc3ccc(O)cc3c(=O)c2c1O [Ge-1] | 38% | 49% | 57% | 54% | 62% | 23% | 81% | 29% | 28% | 42% | 43% | 19% | 50% | 26% | 28% | 11% | 45% | 37% | 44% | 9% | Percent Inhibition (BT-474): 30%; Percent Inhibition (NCI-H1623): 9%; Percent Inhibition (C3A): 32%; Percent Inhibition (NCI-H1770): 13%; Percent Inhibition (HGC-27): 54%; Percent Inhibition (HCC1395): 55%; Percent Inhibition (T98G): 46%; Percent Inhibition (A704): 34%; Percent Inhibition (NCI-H2347): 32%; Percent Inhibition (HCC1599): 54%; Percent Inhibition (BT-549): 20%; Percent Inhibition (CCF-STTG1): 43%; Percent Inhibition (MSTO-211-H): 44%; Percent Inhibition (M059J): 24%; Percent Inhibition (HCC1569): 52%; Percent Inhibition (NCI-H2405): 7% |
